In patent US20220403001A1, “PDE5 DERIVED REGULATORY CONSTRUCTS AND METHODS OF USE IN IMMUNOTHERAPY” (Obsidian Therapeutics, Inc., priority 2018, published 2022):

How the values were obtained:
[1] = tested on: hPDE5 mutants; experiment: GFP FACS analysis of hPDE5 mutant library clones in NIH3T3 cell pools; details: experiment 1
Method: (§1) These constructs were packaged into lentivirus, transduced into NIH3T3 cells and select stable cell pools were derived as described below. […] Lentiviral stocks were used for transduction of NIH3T3 cells and subsequent cell pool selection. The day before transduction, NIH3T3 cells (1.8×10^6) were seeded in a T-25 flask and allowed to reach 60-70% confluency (˜1 day). The growth medium in the T-25 flask was then replaced with 1 mL virus (quickly thawed in a 37° C. water bath) and 5 μg/mL polybrene. […] Transduction medium was removed the following day and replaced with 5 mL fresh medium. At 48 hr after transduction, the medium was replaced with media containing 1 μg/mL puromycin. This puromycin medium was replaced every 3-4 days until cell pools were established (˜2 weeks).
(§2) The mean fluorescence intensity (MFI) of GFP at 100 μM concentration treatment was set as 100% hPDE5 stabilization effect (HPE), while DMSO treatment was set as 0% effect (ZPE) of hPDE5 stabilization. The effect of the compound on hPDE5 stabilization was calculated based on the following formula: % PDE5 stabilization effect=(MFI-ZPE)/(HPE-ZPE)×100.
(§3) Plots of the % effect versus concentration were generated with Graphpad Prism 5 and EC50 values were calculated using a four-parameter nonlinear regression model.
(§4) Select PDE5 clones from both experiment 1 and experiment 2 were directly compared. […] The stabilization ratio was calculated as the fold change in GFP intensity in ligand treated samples compared to treatment with DMSO (i.e. in the absence of ligand) with the same construct.

[2] = molecular target: hPDE5 mutants (Homo sapiens, UniProt O76074); experiment: as above; details: for MFI 10 μM VDF / MFI DMSO: GFP, NIH3T3 cell pools; for MFI 10 μM VDF: 10 μM vardenafil 24 hr; for MFI 10 μM VDF / MFI DMSO / GFP FACS analysis (MFI): experiment 1; for MFI DMSO: no ligand (DMSO)
Method: as §1, §2, §3, §4

Substance | GFP FACS analysis (MFI) ([1]; DMSO (no ligand), SDF series) | GFP FACS analysis (MFI) ([1]; DMSO (no ligand), TDF series) | GFP FACS analysis (MFI) ([1]; DMSO (no ligand), VDF series) | GFP FACS analysis (MFI) ([1]; SDF 1.235 μM) | Percent stabilization effect ([1]; SDF 1.235 μM) [%] | Percent stabilization effect ([1]; SDF 3.704 μM) [%] | Percent stabilization effect ([1]; SDF 11.111 μM) [%] | Percent stabilization effect ([1]; SDF 33.333 μM) [%] | Percent stabilization effect ([1]; SDF 100 μM (set as 100%)) [%] | GFP FACS analysis (MFI) ([1]; TDF 1.235 μM) | Percent stabilization effect ([1]; TDF 1.235 μM) [%] | Percent stabilization effect ([1]; TDF 3.704 μM) [%] | Percent stabilization effect ([1]; TDF 11.111 μM) [%] | Percent stabilization effect ([1]; TDF 33.333 μM) [%] | Percent stabilization effect ([1]; TDF 100 μM (set as 100%)) [%] | Percent stabilization effect ([1]; VDF 1.235 μM) [%] | Percent stabilization effect ([1]; VDF 3.704 μM) [%] | Percent stabilization effect ([1]; VDF 11.111 μM) [%] | Percent stabilization effect ([1]; VDF 33.333 μM) [%] | Percent stabilization effect ([1]; VDF 100 μM (set as 100%)) [%] | other results
LibC000015: hPDE5 (Amino acid 535-860 of WT, T571S, V585M, T723S), DD generated by random mutagenesis | 301 | 306 | 373 | 320 | 5.8 | 9.1 | 17.0 | 39.8 | 100.0 | 311 | 2.4 | 9.4 | 32.1 | 74.1 | 100.0 | 14.2 | 37.5 | 72.0 | 103.6 | 100.0 | MFI 10 μM VDF [2]: 1951; MFI DMSO [2]: 174; GFP FACS analysis (MFI) ([2]; SDF 3.704 μM): 331; GFP FACS analysis (MFI) ([2]; SDF 11.111 μM): 357; GFP FACS analysis (MFI) ([2]; SDF 33.333 μM): 432; GFP FACS analysis (MFI) ([2]; SDF 100 μM): 630; GFP FACS analysis (MFI) ([2]; TDF 3.704 μM): 326; GFP FACS analysis (MFI) ([2]; TDF 11.111 μM): 374; GFP FACS analysis (MFI) ([2]; TDF 33.333 μM): 463; GFP FACS analysis (MFI) ([2]; TDF 100 μM): 518; GFP FACS analysis (MFI) ([2]; VDF 1.235 μM): 756; GFP FACS analysis (MFI) ([2]; VDF 3.704 μM): 1383; GFP FACS analysis (MFI) ([2]; VDF 11.111 μM): 2315; GFP FACS analysis (MFI) ([2]; VDF 33.333 μM): 3166; GFP FACS analysis (MFI) ([2]; VDF 100 μM): 3069
LibC000005: hPDE5 (Amino acid 535-860 of WT, I556S, E796D), DD generated by random mutagenesis | 335 | 366 | 376 | 479 | 18.0 | 22.8 | 30.2 | 49.8 | 100.0 | 418 | 11.6 | 19.4 | 41.3 | 77.0 | 100.0 | 17.3 | 41.2 | 69.6 | 91.0 | 100.0 | MFI 10 μM VDF [2]: 2081; MFI DMSO [2]: 271; GFP FACS analysis (MFI) ([2]; SDF 3.704 μM): 518; GFP FACS analysis (MFI) ([2]; SDF 11.111 μM): 577; GFP FACS analysis (MFI) ([2]; SDF 33.333 μM): 734; GFP FACS analysis (MFI) ([2]; SDF 100 μM): 1136; GFP FACS analysis (MFI) ([2]; TDF 3.704 μM): 453; GFP FACS analysis (MFI) ([2]; TDF 11.111 μM): 551; GFP FACS analysis (MFI) ([2]; TDF 33.333 μM): 711; GFP FACS analysis (MFI) ([2]; TDF 100 μM): 814; GFP FACS analysis (MFI) ([2]; VDF 1.235 μM): 1044; GFP FACS analysis (MFI) ([2]; VDF 3.704 μM): 1968; GFP FACS analysis (MFI) ([2]; VDF 11.111 μM): 3066; GFP FACS analysis (MFI) ([2]; VDF 33.333 μM): 3892; GFP FACS analysis (MFI) ([2]; VDF 100 μM): 4240; Fluorescence intensity Sildenafil ([2]; median GFP fluorescence by FACS, 10 μM Sildenafil, direct comparison of clones): 1136; Fluorescence intensity Tadalafil ([2]; median GFP fluorescence by FACS, 10 μM Tadalafil, direct comparison of clones): 814; Fluorescence intensity Vardenafil ([2]; median GFP fluorescence by FACS, 10 μM Vardenafil, direct comparison of clones): 4240; Fluorescence intensity DMSO ([2]; median GFP fluorescence by FACS, vehicle DMSO (no ligand), direct comparison of clones): 359
